# Results from patent publication US20170088589A1, “STATIN RESISTANCE AND EXPORT” (DANMARKS TEKNISKE UNIVERSITET, priority 2014, published 2017).
# Tests used:
# [1] = tested on: Saccharomyces cerevisiae WT and ARX3 strain harbouring the putative efflux pump MlcE; assay: serial dilution plating of WT and ARX3 on YPD agar plates containing different cytotoxic compounds (FIG. 3); type: cell-based; details: compound in YPD agar, tenfold dilution series, 30° C., 2 days; compactin, lovastatin, simvastatin in active form
# Description: Investigation of the potential of MlcE to confer the resistance to statins in yeast. Tenfold dilution series of Saccharomyces cerevisiae WT and ARX3 strain harbouring the putative efflux pump MlcE, starting with an OD600 of 0.02 were prepared from overnight cultures.
# Moreover, to determine if the putative efflux pump MlcE has the ability to export statins across the plasma membrane the inventors of the present application also tested whether MlcE confers resistance to statins in yeast. […] The resulting yeast strain ARX3 was tested for susceptibility to compactin by serial dilution plating of both wild type (WT) and ARX3 strains on YPD agar plates supplemented with the active form of compactin (FIG. 3).
# [2] = tested on: Saccharomyces cerevisiae strains (wt, ARX3, AR29 pdr5Δ, pdr5Δ); assay: agar-plate dilution assay (spot assay) with lovastatin, PDR5 complementation (FIG. 4); details: lowest tested concentration (0.74 mM) of activated lovastatin, 30° C., 3 days
# Description: The constructed strains response to different lovastatin levels present in the growth medium were tested using a agar-plate dilution assay (also known as a spot assay). Overnight cultures of the four Saccharomyces cerevisiae strains (wt, ARX3, AR29 pdr5Δ, pdr5Δ,) were diluted to OD600 of 0.2 and a fivefold dilution series for each strain was made. […] The growth of the individual strain as a function of time was recorded by photography.
SMILES,resistance of MlcE-expressing strain ARX3 compared to the wild type strain [1],growth of pdr5Δ strain [2]
CC(C)c1c(C(=O)Nc2ccccc2)c(-c2ccccc2)c(-c2ccc(F)cc2)n1CC[C@@H](O)C[C@@H](O)CC(=O)O [atorvastatin],does not show an increased resistance,
CC[C@H](C)C(=O)O[C@H]1CCC=C2C=C[C@H](C)[C@H](CC[C@@H]3C[C@@H](O)CC(=O)O3)[C@H]21 [compactin],increased resistance,
CC[C@H](C)C(=O)O[C@H]1C[C@@H](C)C=C2C=C[C@H](C)[C@H](CC[C@@H]3C[C@@H](O)CC(=O)O3)[C@H]21 [lovastatin],increased resistance,lack of growth
COc1c(C)c2c(c(O)c1C/C=C(\C)CCC(=O)O)C(=O)OC2 [mycophenolic acid],does not show an increased resistance,
COc1cc(C=O)ccc1O [vanillin],does not show an increased resistance,
